Measurements as given in patent US12077503B2, “Substituted cyclic amides and their use as herbicides” (FMC CORPORATION, priority 2015, dated 2024).
Read-outs that look alike come from different tables or passages of the source.

How the values were obtained:
Assay in all cases: Test A postemergence
Type in all cases: in vivo
[1] = test system: ryegrass, Italian (Italian ryegrass, Lolium multiflorum); conditions: Lolium multiflorum, post-emergence, 240 h; for pest or weed control at 125 g/ha: 125 g ai/ha; for pest or weed control at 500 g/ha: 500 g ai/ha, visual injury, 0 to 100 scale (0 no effect, 100 complete control), approx. 10 d
Outline: (§1)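 Ratings of 0 (no effect) to 100 (complete control) come from visual comparison with untreated controls roughly 10 d after treatment. Test chemicals, formulated in a non-phytotoxic solvent mixture with surfactant, were applied either as a preemergence directed soil spray on seeded soil or postemergence to one- to two-leaf plants 2 to 10 cm tall.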

[2] = test system: Galium (catchweed bedstraw, Galium aparine); conditions: Galium, post-emergence, 240 h; for pest or weed control at 125 g/ha: 125 g ai/ha; for pest or weed control at 500 g/ha: 500 g ai/ha, visual injury, 0 to 100 scale (0 no effect, 100 complete control), approx. 10 d
Outline: as §1

[3] = test system: wheat (Triticum aestivum); conditions: Triticum aestivum, post-emergence, 240 h; for plant injury at 125 g/ha: 125 g ai/ha; for plant injury at 500 g/ha: 500 g ai/ha, visual injury, 0 to 100 scale (0 no effect, 100 complete control), approx. 10 d
Outline: as §1

[4] = test system: ragweed (common ragweed, Ambrosia elatior); conditions: Ambrosia artemisiifolia, post-emergence, 240 h; for pest or weed control at 125 g/ha: 125 g ai/ha; for pest or weed control at 500 g/ha: 500 g ai/ha, visual injury, 0 to 100 scale (0 no effect, 100 complete control), approx. 10 d
Outline: as §1

[5] = test system: corn (Zea mays); conditions: Zea mays, post-emergence, 240 h; for plant injury at 125 g/ha / Corn plant response rating (crop injury, 0 = no effect, 100 = complete kill) at 125 g/ha: 125 g ai/ha; for plant injury at 125 g/ha / Corn plant response rating (crop injury, 0 = no effect, 100 = complete kill) at 500 g/ha: postemergence; for plant injury at 125 g/ha: visual injury rating after approximately 10 d, read-out: Corn plant response rating (0 to 100 scale, 0 no effect, 100 complete control); for Corn plant response rating (crop injury, 0 = no effect, 100 = complete kill) at 125 g/ha: Postemergence, visual injury after approximately 10 d, 0 to 100 scale where 0 is no effect and 100 is complete control; for Corn plant response rating (crop injury, 0 = no effect, 100 = complete kill) at 500 g/ha: 500 g ai/ha, visual injury, 0 to 100 scale (0 no effect, 100 complete control), approx. 10 d
Outline: as §1

[6] = test system: giant foxtail (Setaria faberii); conditions: Setaria faberi, post-emergence, 240 h; for pest or weed control at 125 g/ha: 125 g ai/ha; for pest or weed control at 500 g/ha: 500 g ai/ha, visual injury, 0 to 100 scale (0 no effect, 100 complete control), approx. 10 d
Outline: as §1

[7] = postemergence, visual injury rating after approximately 10 d, read-out: Ryegrass, Italian plant response rating (0 to 100 scale, 0 no effect, 100 complete control)
[8] = postemergence, visual injury rating after approximately 10 d, read-out: Galium plant response rating (0 to 100 scale, 0 no effect, 100 complete control)
[9] = postemergence, visual injury rating after approximately 10 d, read-out: Wheat plant response rating (0 to 100 scale, 0 no effect, 100 complete control)
[10] = postemergence, visual injury rating after approximately 10 d, read-out: Ragweed plant response rating (0 to 100 scale, 0 no effect, 100 complete control)
[11] = postemergence, visual injury rating after approximately 10 d, read-out: Foxtail, Giant plant response rating (0 to 100 scale, 0 no effect, 100 complete control)
[12] = Postemergence, visual injury after approximately 10 d, 0 to 100 scale where 0 is no effect and 100 is complete control, read-out: Plant response rating, Ryegrass, Italian
[13] = Postemergence, visual injury after approximately 10 d, 0 to 100 scale where 0 is no effect and 100 is complete control, read-out: Plant response rating, Galium
[14] = Postemergence, visual injury after approximately 10 d, 0 to 100 scale where 0 is no effect and 100 is complete control, read-out: Plant response rating, Wheat
[15] = Postemergence, visual injury after approximately 10 d, 0 to 100 scale where 0 is no effect and 100 is complete control, read-out: Plant response rating, Ragweed
[16] = Postemergence, visual injury after approximately 10 d, 0 to 100 scale where 0 is no effect and 100 is complete control, read-out: Plant response rating, Foxtail, Giant
[17] = postemergence, read-out: Plant response rating, Ryegrass, Italian
[18] = postemergence, read-out: Plant response rating, Galium
[19] = postemergence, read-out: Plant response rating, Wheat
[20] = postemergence, read-out: Plant response rating, Ragweed
[21] = postemergence, read-out: Plant response rating, Foxtail, Giant

Structure (SMILES)	pest or weed control at 125 g/ha [1, 7] [%]	pest or weed control at 125 g/ha [2, 8] [%]	plant injury at 125 g/ha [3, 9] [%]	pest or weed control at 125 g/ha [4, 10] [%]	plant injury at 125 g/ha [5] [%]	pest or weed control at 125 g/ha [6, 11] [%]	pest or weed control at 125 g/ha [1, 12] [%]	pest or weed control at 125 g/ha [2, 13] [%]	plant injury at 125 g/ha [3, 14] [%]	pest or weed control at 125 g/ha [4, 15] [%]	Corn plant response rating (crop injury, 0 = no effect, 100 = complete kill) at 125 g/ha [5] [%]	pest or weed control at 125 g/ha [6, 16] [%]	pest or weed control at 500 g/ha [1, 17] [%]	pest or weed control at 500 g/ha [2, 18] [%]	plant injury at 500 g/ha [3, 19] [%]	pest or weed control at 500 g/ha [4, 20] [%]	Corn plant response rating (crop injury, 0 = no effect, 100 = complete kill) at 500 g/ha [5] [%]	pest or weed control at 500 g/ha [6, 21] [%]
CN1C[C@H](c2cc(F)c(F)c(F)c2)[C@@H](C(=O)Nc2ccccc2F)C1=O [Compound 878]	40	50	60	20	50	80	–	–	–	–	–	–	–	–	–	–	–	–
Cc1cc(C)cc([C@H]2CNC(=O)[C@@H]2C(=O)Nc2cccc(F)c2F)c1 [Compound 889]	40	30	0	0	20	40	–	–	–	–	–	–	–	–	–	–	–	–
COc1c(F)ccc([C@H]2CNC(=O)[C@@H]2C(=O)Nc2ccc(F)c(F)c2F)c1Cl [Compound 890]	0	50	0	0	20	70	–	–	–	–	–	–	–	–	–	–	–	–
COc1c(F)ccc([C@H]2CNC(=O)[C@@H]2C(=O)Nc2ccccc2C(F)(F)F)c1Cl [Compound 891]	0	30	0	0	20	40	–	–	–	–	–	–	–	–	–	–	–	–
CN1C[C@H](c2cc(F)c(C(F)(F)F)c(F)c2)[C@@H](C(=O)Nc2ccccc2S(C)(=O)=O)C1=O [Compound 900]	40	20	50	10	50	80	–	–	–	–	–	–	–	–	–	–	–	–
CN1C[C@H](c2cc(F)c(C(F)(F)F)c(F)c2)[C@@H](C(=O)Nc2ccc(F)cc2F)C1=O [Compound 901]	0	0	20	0	40	90	–	–	–	–	–	–	–	–	–	–	–	–
CCOc1ccc([C@H]2CN(C)C(=O)[C@@H]2C(=O)Nc2ccc(F)cc2F)cc1 [Compound 905]	0	0	0	0	0	60	–	–	–	–	–	–	–	–	–	–	–	–
CCOc1ccc([C@H]2CNC(=O)[C@@H]2C(=O)Nc2ccc(F)cc2F)cc1 [Compound 908]	0	0	0	0	0	30	–	–	–	–	–	–	–	–	–	–	–	–
CON1CC[C@H](c2ccc(F)cc2)[C@@H](C(=O)Nc2cccc(F)c2F)C1=O [Compound 918]	–	–	–	–	–	–	0	0	0	0	0	0	–	–	–	–	–	–
CN1CC[C@H](c2cccc(C(F)(F)F)c2)[C@@H](C(=O)Nc2ccccc2S(C)(=O)=O)C1=O [Compound 920]	–	–	–	–	–	–	0	0	0	0	0	20	–	–	–	–	–	–
CN1CC[C@H](c2cccc(Cl)c2)[C@@H](C(=O)Nc2cccc(F)c2F)C1=O [Compound 921]	–	–	–	–	–	–	20	0	20	0	20	90	–	–	–	–	–	–
Cc1cc([C@H]2CN(C)C(=O)[C@@H]2C(=O)Nc2ccccc2F)ccc1Cl [Compound 928]	–	–	–	–	–	–	50	50	40	0	40	90	–	–	–	–	–	–
Cc1cc([C@H]2CN(C)C(=O)[C@@H]2C(=O)Nc2ccc(F)cc2F)ccc1Cl [Compound 930]	–	–	–	–	–	–	30	40	30	0	40	80	–	–	–	–	–	–
Cc1ccc([C@H]2CN(C)C(=O)[C@@H]2C(=O)Nc2cccc(F)c2C)cc1Cl [Compound 1014]	–	–	–	–	–	–	30	20	30	0	70	90	60	60	80	30	90	90
CC(=O)Oc1ccc(F)c(NC(=O)[C@H]2C(=O)N(C)C[C@@H]2c2cc(F)cc(F)c2)c1 [Compound 1019]	–	–	–	–	–	–	0	0	0	0	0	0	0	0	0	0	0	0
O=C1NC[C@H](c2ccc3c(c2)OCO3)[C@H]1C(=O)Nc1ccc(F)cc1F [Compound 1026]	–	–	–	–	–	–	0	0	20	0	0	0	0	50	30	0	30	20
